Data as given in patent US12319672B2, “Alpha-D-galactopyranoside derivatives” (Idorsia Pharmaceuticals Ltd, priority 2019, dated 2025).

Columns and labels:
human Gal-3 (hGal-3) = human Gal-3 (hGal-3) (Homo sapiens (Human), UniProt P17931); assay: Competitive binding assay: binding of biotinylated hGal-3 to microplate-adsorbed asialofetuin (ASF); conditions: Activity on hGal-3; mean values of several measurements
Method in brief: (§1)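 Compounds diluted in DMSO competed with biotinylated hGal-3 or hGal-1 (300-1000 ng/mL) for binding to plate-adsorbed asialofetuin for 3 h at 4° C. Bound galectin was detected with streptavidin-peroxidase (80 ng/mL, 1 h, 4° C) and ABTS substrate; IC50 reported as mean of several measurements.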

human Gal-1 (hGal-1) = assay: Competitive binding assay: binding of biotinylated hGal-1 to microplate-adsorbed asialofetuin (ASF); conditions: Activities on hGal-1; mean values of several measurements
Method in brief: as §1

human Gal-1 (hGal-1), sequence (P09382 2-135 limits assumed): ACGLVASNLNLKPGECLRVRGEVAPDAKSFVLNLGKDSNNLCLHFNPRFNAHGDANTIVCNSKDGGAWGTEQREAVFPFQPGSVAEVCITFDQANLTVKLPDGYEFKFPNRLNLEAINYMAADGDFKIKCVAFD
human Gal-3 (hGal-3), sequence (P17931 whole entry): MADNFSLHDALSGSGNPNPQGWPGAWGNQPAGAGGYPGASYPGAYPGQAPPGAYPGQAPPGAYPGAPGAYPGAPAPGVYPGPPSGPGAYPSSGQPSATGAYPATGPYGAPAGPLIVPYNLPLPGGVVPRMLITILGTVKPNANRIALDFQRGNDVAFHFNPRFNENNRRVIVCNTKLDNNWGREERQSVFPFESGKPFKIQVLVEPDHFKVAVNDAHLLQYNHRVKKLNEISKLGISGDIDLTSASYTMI

SMILES	IC50 (human Gal-3 (hGal-3)) [nM]	IC50 (human Gal-1 (hGal-1)) [nM]
CO[C@@H]1[C@@H](n2cc(-c3cc(F)c(F)c(F)c3)nn2)[C@@H](O)[C@@H](CO)O[C@@H]1Cc1cn(C2CCN([S+]([O-])C(C)(C)C)CC2)nn1 (stereo partly drawn) [Example 4.19, (2R,3R,4S,5R,6R)-6-((1-(1-(RS-tert-butylsulfinyl)piperidin-4-yl)-1H-1,2,3-triazol-4-yl)methyl)-2-(hydroxymethyl)-5-methoxy-4-(4-(3,4,5-trifluorophenyl)-1H-1,2,3-triazol-1-yl)tetrahydro-2H-pyran-3-ol]	34	1000
Cc1ccc(-c2cn([C@H]3[C@@H](O)[C@@H](CO)O[C@H](Cc4cc(C(C)(C)C)no4)[C@@H]3OCc3cnco3)nn2)c(F)c1F [Example 2.55, (2R,3R,4S,5R,6R)-6-((3-(tert-butyl)isoxazol-5-yl)methyl)-4-(4-(2,3-difluoro-4-methylphenyl)-1H-1,2,3-triazol-1-yl)-2-(hydroxymethyl)-5-(oxazol-5-ylmethoxy)tetrahydro-2H-pyran-3-ol]	120	2720
CO[C@@H]1[C@@H](n2cc(-c3cc(F)c(F)c(F)c3)nn2)[C@@H](O)[C@@H](CO)O[C@@H]1CC1=NOC(C2CCN(C(=O)OC(C)(C)C)CC2)C1 (stereo partly drawn) [Ex 1.67]	430	3080
CO[C@@H]1[C@@H](n2cc(-c3cc(F)cc(F)c3)nn2)[C@@H](O)[C@@H](CO)O[C@@H]1Cc1cn(C2CCN(C(=O)OCc3ccccc3)CC2)nn1 [Example 4.37, benzyl 4-(4-(((2R,3R,4S,5R,6R)-4-(4-(3,5-difluorophenyl)-1H-1,2,3-triazol-1-yl)-5-hydroxy-6-(hydroxymethyl)-3-methoxytetrahydro-2H-pyran-2-yl)methyl)-1H-1,2,3-triazol-1-yl)piperidine-1-carboxylate]	15	170
CO[C@@H]1[C@@H](n2cc(-c3cc(F)c(F)c(F)c3)nn2)[C@@H](O)[C@@H](CO)O[C@@H]1CN1CC(=O)N(C2CCOCC2)C1 [Example 6.10, 1-(((2R,3R,4S,5R,6R)-5-hydroxy-6-(hydroxymethyl)-3-methoxy-4-(4-(3,4,5-trifluorophenyl)-1H-1,2,3-triazol-1-yl)tetrahydro-2H-pyran-2-yl)methyl)-3-(tetrahydro-2H-pyran-4-yl)imidazolidin-4-one]	37	890
CO[C@@H]1[C@@H](n2cc(-c3ccc4ccccc4c3)nn2)[C@@H](O)[C@@H](CO)O[C@@H]1CC1CC(C2CCN(C(=O)OC(C)(C)C)CC2)=NO1 (stereo partly drawn) [Ex 1.304]	1620	3910
CO[C@@H]1[C@@H](n2cc(-c3ccc(Cl)c(F)c3F)nn2)[C@@H](O)[C@@H](CO)O[C@@H]1Cc1cc(C2(O)CCCC2)on1 [Ex 1.244]	110	3290
Cc1ccc(-c2cn([C@H]3[C@@H](O)[C@@H](CO)O[C@H](Cc4cc(C(C)(C)C)on4)[C@@H]3OCC(=O)O)nn2)c(F)c1F [Example 2.27, 2-(((2R,3R,4S,5R,6R)-2-((5-(tert-butyl)isoxazol-3-yl)methyl)-4-(4-(2,3-difluoro-4-methylphenyl)-1H-1,2,3-triazol-1-yl)-5-hydroxy-6-(hydroxymethyl)tetrahydro-2H-pyran-3-yl)oxy)acetic acid]	24	5280
Cc1ccc(-c2cn([C@H]3[C@@H](O)[C@@H](CO)O[C@H](Cc4cc(C5(C)CC5)no4)[C@@H]3O)nn2)c(F)c1F [Ex 1.333]	10	6990
CCC(=O)O[C@@H]1[C@@H](n2cc(-c3cc(F)c(F)c(F)c3)nn2)[C@@H](O)[C@@H](CO)O[C@@H]1Cc1cc(C2CCN(C(=O)OC(C)(C)C)CC2)on1 [Example 2.15, tert-butyl 4-(3-(((2R,3R,4S,5R,6R)-5-hydroxy-6-(hydroxymethyl)-3-(propionyloxy)-4-(4-(3,4,5-trifluorophenyl)-1H-1,2,3-triazol-1-yl)tetrahydro-2H-pyran-2-yl)methyl)isoxazol-5-yl)piperidine-1-carboxylate]	95	2140
CO[C@@H]1[C@@H](n2cc(-c3cc(F)c(F)c(F)c3)nn2)[C@@H](O)[C@@H](CO)O[C@@H]1Cn1cc(C2CCN(S(=O)(=O)N(C)C)CC2)nn1 [Example 4.26, 4-(1-(((2R,3R,4S,5R,6R)-5-hydroxy-6-(hydroxymethyl)-3-methoxy-4-(4-(3,4,5-trifluorophenyl)-1H-1,2,3-triazol-1-yl)tetrahydro-2H-pyran-2-yl)methyl)-1H-1,2,3-triazol-4-yl)-N,N-dimethylpiperidine-1-sulfonamide]	61	1240
CCOC(=O)N1CCC(c2cc(C[C@H]3O[C@H](CO)[C@H](O)[C@H](n4cc(-c5ccc(C)c(F)c5)nn4)[C@H]3OC)no2)CC1 [Ex 1.201]	67	2940
COc1cc(OC)c(-c2cn([C@H]3[C@@H](O)[C@@H](CO)O[C@H](CC4CC(C5CCN(C(=O)OC(C)(C)C)CC5)=NO4)[C@@H]3O)nn2)cc1F (stereo partly drawn) [Ex 1.111]	1660	11500
CO[C@@H]1[C@@H](n2cc(-c3cc(F)c(F)c(F)c3)nn2)[C@@H](O)[C@@H](CO)O[C@@H]1Cn1cc(C2CCN(C(=O)NC(C)(C)C)CC2)nn1 [Example 4.27, N-(tert-butyl)-4-(1-(((2R,3R,4S,5R,6R)-5-hydroxy-6-(hydroxymethyl)-3-methoxy-4-(4-(3,4,5-trifluorophenyl)-1H-1,2,3-triazol-1-yl)tetrahydro-2H-pyran-2-yl)methyl)-1H-1,2,3-triazol-4-yl)piperidine-1-carboxamide]	34	380
CO[C@@H]1[C@@H](n2cc(-c3ccc(C)c(F)c3)nn2)[C@@H](O)[C@@H](CO)O[C@@H]1Cc1cc(C2CCN(S(C)(=O)=O)CC2)on1 [Ex 1.153]	67	1600
COc1ccc(-c2cc(C[C@H]3O[C@H](CO)[C@H](O)[C@H](n4cc(-c5cc(F)c(F)c(F)c5)nn4)[C@H]3O)on2)cc1 [Example 2.01, (2R,3R,4R,5R,6R)-2-(hydroxymethyl)-6-((3-(4-methoxyphenyl)isoxazol-5-yl)methyl)-4-(4-(3,4,5-trifluorophenyl)-1H-1,2,3-triazol-1-yl)tetrahydro-2H-pyran-3,5-diol]	840	8360
CC(C)(O)C1CC(C[C@H]2O[C@H](CO)[C@H](O)[C@H](n3cc(-c4cc(F)c(F)c(F)c4)nn3)[C@H]2O)=NO1 (stereo partly drawn) [Ex 1.39]	710	9940
OC[C@H]1O[C@H](CC2CC(C3CCCCC3)=NO2)[C@H](O)[C@@H](n2cc(-c3cc(F)c(F)c(F)c3)nn2)[C@H]1O (stereo partly drawn) [Ex 1.05]	480	7180
CO[C@@H]1[C@@H](n2cc(-c3cc(F)c(F)c(F)c3)nn2)[C@@H](O)[C@@H](CO)O[C@@H]1Cc1cn(C2CCN(C(=O)OCc3ccccc3)CC2)nn1 [Example 4.13, benzyl 4-(4-(((2R,3R,4S,5R,6R)-5-hydroxy-6-(hydroxymethyl)-3-methoxy-4-(4-(3,4,5-trifluorophenyl)-1H-1,2,3-triazol-1-yl)tetrahydro-2H-pyran-2-yl)methyl)-1H-1,2,3-triazol-1-yl)piperidine-1-carboxylate]	17	340
CO[C@@H]1[C@@H](n2cc(-c3ccc(Cl)c(F)c3F)nn2)[C@@H](O)[C@@H](CO)O[C@@H]1Cc1cc(C(C)(C)C)no1 [Ex 1.258]	37	980
CO[C@@H]1[C@@H](n2cc(-c3ccc(C)c(F)c3F)nn2)[C@@H](O)[C@@H](CO)O[C@@H]1Cc1cc(C(C)(C)C)no1 [Ex 1.254]	31	1110
COc1ccc(-c2cn([C@H]3[C@@H](O)[C@@H](CO)O[C@H](CC4CC(C5CCN(C(=O)OC(C)(C)C)CC5)=NO4)[C@@H]3OC)nn2)c(F)c1F (stereo partly drawn) [Ex 1.328]	77	960
CO[C@@H]1[C@@H](n2cc(-c3ccc(C)c(F)c3)nn2)[C@@H](O)[C@@H](CO)O[C@@H]1Cc1cc(C2CCOCC2)on1 [Ex 1.180]	180	4930
CO[C@@H]1[C@@H](n2cc(-c3cc(F)c(F)c(F)c3)nn2)[C@@H](O)[C@@H](CO)O[C@@H]1C[C@H]1CC([C@H]2CNC(=O)C2)=NO1 [Ex 1.93]	550	16000
OC[C@H]1O[C@H](Cc2cc(C3CCN(c4nccs4)CC3)on2)[C@H](O)[C@@H](n2cc(-c3cc(F)c(F)c(F)c3)nn2)[C@H]1O [Ex 1.87]	80	1970
CO[C@@H]1[C@@H](n2cc(-c3cc(F)c(F)c(F)c3)nn2)[C@@H](O)[C@@H](CO)O[C@@H]1Cc1cc(C2(O)CCCCC2)on1 [Ex 1.73]	190	3120
CO[C@@H]1[C@@H](n2cc(-c3cccc4ccccc34)nn2)[C@@H](O)[C@@H](CO)O[C@@H]1CC1CC(C2CCN(C(=O)OC(C)(C)C)CC2)=NO1 (stereo partly drawn) [Ex 1.305]	1860	1180
CO[C@@H]1[C@@H](n2cc(-c3cc(F)c(F)c(F)c3)nn2)[C@@H](O)[C@@H](CO)O[C@@H]1Cc1cc(C2(O)CCC(F)(F)CC2)on1 [Ex 1.83]	400	8210
CO[C@@H]1[C@@H](n2cc(-c3ccc(F)c(F)c3F)nn2)[C@@H](O)[C@@H](CO)O[C@@H]1Cc1cc(C(C)(C)CO)no1 [Ex 1.253]	58	280
CO[C@@H]1[C@@H](n2cc(-c3ccc(C#N)c(F)c3F)nn2)[C@@H](O)[C@@H](CO)O[C@@H]1Cc1cc(C(C)(C)C)no1 [Ex 1.338]	150	1980
